Experiments:
Assay type in all cases: in vivo
[1] = test system: field corn (Zea mays L., var. Dekalb 535, CORN); assay: Post-emerge test, crop safety; conditions: post-emerge, 14 days after application, rating scale 0-100
How it was run: (§1)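 Applied at 15–1000 g ai/ha from acetone in 187 l/ha spray volume. Post-emergence applications included 0.25% v/v non-ionic surfactant and reached plants sown 8–21 days before. Pre-emergence applications were incorporated by surface watering. Efficacy or crop damage was rated on a 0–100 scale after 14 days.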

[2] = test system: upland rice (Oryza sp., var. Tebonnet, RICE); assay: Post-emerge test, crop safety; conditions: post-emerge, 14 days after application, rating scale 0-100
How it was run: as §1

[3] = test system: green foxtail (Setaria viridis, SETVI); assay: Pre-emerge test, greenhouse herbicide activity screening; conditions: rated 14 days after application, 0 = no damage, 100 = complete death
How it was run: as §1

[4] = test system: barnyardgrass (Echinochloa crus-galli, ECHCG); assay: as above; conditions: rated 14 days after application, 0 = no damage, 100 = complete death
How it was run: as §1

[5] = test system: sicklepod (Cassia obtusifolia, CASOB); assay: as above; conditions: rated 14 days after application, 0 = no damage, 100 = complete death
How it was run: as §1

[6] = test system: lambsquarters (Chenopodium album, CHEAL); assay: as above; conditions: rated 14 days after application, 0 = no damage, 100 = complete death
How it was run: as §1

[7] = test system: large crabgrass (Digitaria sanguinalis, DIGSA); assay: as above; conditions: rated 14 days after application, 0 = no damage, 100 = complete death
How it was run: as §1

[8] = test system: johnsongrass (Sorghum halepense, SORHA); assay: as above; conditions: rated 14 days after application, 0 = no damage, 100 = complete death
How it was run: as §1

[9] = test system: common ragweed (Ambrosia artemisizfolia L., AMBEL); assay: as above; conditions: rated 14 days after application, 0 = no damage, 100 = complete death
How it was run: as §1

[10] = test system: velvetleaf (Abutilon theophrasti, ABUTH); assay: as above; conditions: rated 14 days after application, 0 = no damage, 100 = complete death
How it was run: as §1

[11] = test system: ivyleaf morningglory (Ipomoea hederacea, IPOHE); assay: as above; conditions: rated 14 days after application, 0 = no damage, 100 = complete death
How it was run: as §1

[12] = test system: field corn (Zea mays L., var. Dekalb 535, CORN); assay: Pre-emerge test, crop safety; conditions: rated 14 days after application, 0 = no damage, 100 = complete death
How it was run: (§2)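 Plants grown in 10 cm pots of sandy loam mix received acetone-dissolved compounds through a moving flat-fan nozzle. Doses ranged from 15 to 1000 g ai/ha. Pre-emerge pots were seeded one day earlier, post-emerge pots 8–21 days earlier. Fourteen days on, each pot was graded 0–100 for damage.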

[13] = test system: upland rice (Oryza sp., var. Tebonnet, RICE); assay: Pre-emerge test, crop safety; conditions: rated 14 days after application, 0 = no damage, 100 = complete death
How it was run: as §2

[14] = test system: green foxtail (Setaria viridis, SETVI); assay: Post-emerge test, greenhouse herbicide activity screening; conditions: post-emerge, 14 days after application, rating scale 0-100
How it was run: (§3)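 Compounds in acetone were track-sprayed at 15-1000 g ai/ha (187 l/ha) on sandy loam pots: pre-emerge one day after seeding, post-emerge at 2-3 leaf stage with 0.25% v/v non-ionic surfactant. Phytotoxicity was rated 14 days later on a 0 (no damage) to 100 (complete death) scale.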

[15] = test system: barnyardgrass (Echinochloa crus-galli, ECHCG); assay: as above; conditions: post-emerge, 14 days after application, rating scale 0-100
How it was run: as §3

[16] = test system: sicklepod (Cassia obtusifolia, CASOB); assay: as above; conditions: post-emerge, 14 days after application, rating scale 0-100
How it was run: as §3

[17] = test system: redroot pigweed (Amaranthus retroflexus, AMARE); assay: as above; conditions: post-emerge, 14 days after application, rating scale 0-100
How it was run: as §3

[18] = test system: lambsquarters (Chenopodium album, CHEAL); assay: as above; conditions: post-emerge, 14 days after application, rating scale 0-100
How it was run: as §3

[19] = test system: large crabgrass (Digitaria sanguinalis, DIGSA); assay: as above; conditions: post-emerge, 14 days after application, rating scale 0-100
How it was run: as §3

[20] = test system: johnsongrass (Sorghum halepense, SORHA); assay: as above; conditions: post-emerge, 14 days after application, rating scale 0-100
How it was run: as §3

[21] = test system: common ragweed (Ambrosia artemisizfolia L., AMBEL); assay: as above; conditions: post-emerge, 14 days after application, rating scale 0-100
How it was run: as §3

[22] = test system: velvetleaf (Abutilon theophrasti, ABUTH); assay: as above; conditions: post-emerge, 14 days after application, rating scale 0-100
How it was run: as §3

[23] = test system: ivyleaf morningglory (Ipomoea hederacea, IPOHE); assay: as above; conditions: post-emerge, 14 days after application, rating scale 0-100
How it was run: as §3

[24] = test system: redroot pigweed (Amaranthus retroflexus, AMARE); assay: Pre-emerge test, greenhouse herbicide activity screening; conditions: rated 14 days after application, 0 = no damage, 100 = complete death
How it was run: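 Visual ratings on a 0-100 scale (0 no damage, 100 all plants dead) were taken at 14 days after treatment. Rates of 15-1000 g ai/ha in acetone, 187 l/ha, were sprayed onto soil one day after planting (pre-emerge) or onto 2-3 leaf plants with 0.25% v/v surfactant (post-emerge).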

With `COc1c(Cl)cc(F)c(-n2c(=O)cc(C(F)(F)F)n(C)c2=O)c1NC(=O)c1cc(F)cc(F)c1` [2-50] the “phytotoxicity rating CORN” value ([1]; 63 g ai/ha) was 10, the “phytotoxicity rating CORN” value ([1]; 250 g ai/ha) was 70 and the “phytotoxicity rating RICE” value ([2]; 63 g ai/ha) was 60. The “phytotoxicity rating RICE” value ([2]; 250 g ai/ha) was 65, the “Pre-emerge Herbicidal Activity, phytotoxicity rating (0-100), SETVI” value ([3]; 63 g ai/ha) was 90 and the “Pre-emerge Herbicidal Activity, phytotoxicity rating (0-100), SETVI” value ([3]; 250 g ai/ha) was 100. For the same molecule, the “Pre-emerge Herbicidal Activity, phytotoxicity rating (0-100), ECHCG” value ([4]; 63 g ai/ha) was 10, the “Pre-emerge Herbicidal Activity, phytotoxicity rating (0-100), ECHCG” value ([4]; 250 g ai/ha) was 100 and the “Pre-emerge Herbicidal Activity, phytotoxicity rating (0-100), CASOB” value ([5]; 63 g ai/ha) was 60. The “Pre-emerge Herbicidal Activity, phytotoxicity rating (0-100), CASOB” value ([5]; 250 g ai/ha) was 100, the “Pre-emerge Herbicidal Activity, phytotoxicity rating (0-100), CHEAL” value ([6]; 63 g ai/ha) was 100 and the “Pre-emerge Herbicidal Activity, phytotoxicity rating (0-100), CHEAL” value ([6]; 250 g ai/ha) was 100. The “Pre-emerge Herbicidal Activity, phytotoxicity rating (0-100), DIGSA” value ([7]; 63 g ai/ha) was 70, the “Pre-emerge Herbicidal Activity, phytotoxicity rating (0-100), DIGSA” value ([7]; 250 g ai/ha) was 100 and the “Pre-emerge Herbicidal Activity, phytotoxicity rating (0-100), SORHA” value ([8]; 63 g ai/ha) was 30. The “Pre-emerge Herbicidal Activity, phytotoxicity rating (0-100), SORHA” value ([8]; 250 g ai/ha) was 80, the “Pre-emerge Herbicidal Activity, phytotoxicity rating (0-100), AMBEL” value ([9]; 63 g ai/ha) was 60 and the “Pre-emerge Herbicidal Activity, phytotoxicity rating (0-100), AMBEL” value ([9]; 250 g ai/ha) was 100. For the same molecule, the “Pre-emerge Herbicidal Activity, phytotoxicity rating (0-100), ABUTH” value ([10]; 63 g ai/ha) was 100, the “Pre-emerge Herbicidal Activity, phytotoxicity rating (0-100), ABUTH” value ([10]; 250 g ai/ha) was 100 and the “Pre-emerge Herbicidal Activity, phytotoxicity rating (0-100), IPOHE” value ([11]; 63 g ai/ha) was 70. The “Pre-emerge Herbicidal Activity, phytotoxicity rating (0-100), IPOHE” value ([11]; 250 g ai/ha) was 100, the “Pre-emerge phytotoxicity rating (0-100), crop damage, CORN” value ([12]; 63 g ai/ha) was 5 and the “Pre-emerge phytotoxicity rating (0-100), crop damage, CORN” value ([12]; 250 g ai/ha) was 70. For the same molecule, the “Pre-emerge phytotoxicity rating (0-100), crop damage, RICE” value ([13]; 63 g ai/ha) was 25, the “Pre-emerge phytotoxicity rating (0-100), crop damage, RICE” value ([13]; 250 g ai/ha) was 90 and the “phytotoxicity rating SETVI” value ([14]; 63 g ai/ha) was 40. The “phytotoxicity rating SETVI” value ([14]; 250 g ai/ha) was 60, the “phytotoxicity rating ECHCG” value ([15]; 63 g ai/ha) was 0 and the “phytotoxicity rating ECHCG” value ([15]; 250 g ai/ha) was 30. The “phytotoxicity rating CASOB” value ([16]; 63 g ai/ha) was 80, the “phytotoxicity rating CASOB” value ([16]; 250 g ai/ha) was 90 and the “phytotoxicity rating AMARE” value ([17]; 63 g ai/ha) was 90. For the same molecule, the “phytotoxicity rating AMARE” value ([17]; 250 g ai/ha) was 100, the “phytotoxicity rating CHEAL” value ([18]; 63 g ai/ha) was 70 and the “phytotoxicity rating CHEAL” value ([18]; 250 g ai/ha) was 90. For the same molecule, the “phytotoxicity rating DIGSA” value ([19]; 63 g ai/ha) was 10, the “phytotoxicity rating DIGSA” value ([19]; 250 g ai/ha) was 30 and the “phytotoxicity rating SORHA” value ([20]; 63 g ai/ha) was 0. The “phytotoxicity rating SORHA” value ([20]; 250 g ai/ha) was 40, the “phytotoxicity rating AMBEL” value ([21]; 63 g ai/ha) was 40 and the “phytotoxicity rating AMBEL” value ([21]; 250 g ai/ha) was 65. For the same molecule, the “phytotoxicity rating ABUTH” value ([22]; 63 g ai/ha) was 100, the “phytotoxicity rating ABUTH” value ([22]; 250 g ai/ha) was 100 and the “phytotoxicity rating IPOHE” value ([23]; 63 g ai/ha) was 100. For the same molecule, the “phytotoxicity rating IPOHE” value ([23]; 250 g ai/ha) was 100, the “Pre-emerge Herbicidal Activity, phytotoxicity rating (0-100), AMARE” value ([24]; 63 g ai/ha) was 100 and the “Pre-emerge Herbicidal Activity, phytotoxicity rating (0-100), AMARE” value ([24]; 250 g ai/ha) was 100.
